Source: patent US5573908A, “Adrenergic receptor as a proto-oncogene” (Duke University, priority 1993, dated 1996)
Where a chain is given by its changes, count along the chain named. Where “and” joins values, the source holds several entries; their conditions need not be identical. Equal values may be shown once. Entries after “also recorded” stand apart in the source; their conditions may differ. Read-outs that look alike come from different tables or passages of the source. Blank lines part the entries; values can stand above or below the molecule they belong to.

What was measured:
α1B ADR = target: T1, α1B ADR (Mesocricetus auratus, UniProt P18841); assay: Ligand binding on membranes of RAT-1 fibroblast cell lines expressing the α1B ADR; parameters: species or system hamster; settings: two clones
T1 construct: expressed in transfected cells; host or cells: RAT-1 fibroblasts (vector pZIP-NeoSV(X)1), focus-derived, G418-selected lines
T1 sequence (P18841 1-515): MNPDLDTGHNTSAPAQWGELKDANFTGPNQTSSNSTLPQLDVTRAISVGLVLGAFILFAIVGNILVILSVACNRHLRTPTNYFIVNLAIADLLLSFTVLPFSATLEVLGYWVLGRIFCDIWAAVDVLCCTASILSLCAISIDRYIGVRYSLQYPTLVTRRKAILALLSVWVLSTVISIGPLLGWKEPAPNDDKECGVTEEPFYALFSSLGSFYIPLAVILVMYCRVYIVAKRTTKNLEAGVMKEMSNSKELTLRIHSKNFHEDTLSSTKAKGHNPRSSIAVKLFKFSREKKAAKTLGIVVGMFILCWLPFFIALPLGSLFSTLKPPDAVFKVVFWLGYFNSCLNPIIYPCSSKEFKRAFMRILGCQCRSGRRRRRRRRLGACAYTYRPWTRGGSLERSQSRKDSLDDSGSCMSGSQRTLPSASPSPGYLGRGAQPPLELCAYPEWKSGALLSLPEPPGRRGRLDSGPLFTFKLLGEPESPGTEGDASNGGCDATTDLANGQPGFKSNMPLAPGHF
Protocol: (§1) In Table 3, RAT-1 fibroblast cell lines transfected with expression vector alone or derived from transformed foci (α1B ADR or α1B ADR mutant) were selected with G418 (300 μg/ml). Ligand binding was performed on membranes prepared from two clones of each in accordance with known techniques (S. Cotecchia et al., Life Sci. 37, 2389 (1986)). For saturation binding analysis, [^125 ] HEAT concentrations ranged from 10 to 500 pM, nonspecific binding was determined using 1 μM prazosin; in competition experiments, the radioligand concentration was 100 pM. Ligand binding parameters were determined using computerized iterative nonlinear regression analysis (P. Munson, Methods in Enzymol. 92, 5432 (1983)). For assessment of receptor coupling to PI hydrolysis, cells were plated in 30 mm dishes, and labeled overnight with 3 μCi/ml of myo-[2-^3 II(N)]-inositol (1Ci=37 GBq; NEN Research Products) in DMEM containing 3.3% FBS in accordance with known techniques (S. Cotecchia et al., Proc. Natl. Acad. Sci. USA 87, 2896 (1990)). After 40 minute stimulation of cells with 10 μM norepinephrine (NE), inositol phosphates were extracted, and separated on AG 1-X8 anion exchange columns (BioRad Labs) in accordance with known techniques (S. Cotecchia et al., Proc. Natl. Acad. Sci. USA 87, 2896 (1990)). Total inositol phosphates were eluted with 1M ammonium formate/0.1M formic acid. Rmax indicates the percentage increase of total labeled inositol phosphates over basal levels following NE stimulation.

α1B ADR mutant = target: T2, α1B ADR mutant (Mesocricetus auratus, UniProt P18841, A293L/K290H/R288K); assay: Ligand binding on membranes of RAT-1 fibroblast cell lines expressing the α1B ADR mutant; parameters: species or system hamster; settings: two clones
T2 construct: expressed in transfected cells; host or cells: RAT-1 fibroblasts (vector pZIP-NeoSV(X)1), focus-derived, G418-selected lines
T2 sequence (P18841 1-515 R288K/K290H/A293L): T1 sequence (P18841 1-515) with R288K, K290H, A293L
Protocol: as §1

[1] = system: RAT-1 fibroblasts transfected with α1B -ADR c-DNA; assay: Focus formation in RAT-1 fibroblasts transfected with α1B-ADR c-DNA; format: cell-based; settings: focus-derived RAT-1 cell lines; data not shown
Protocol: Transfection was carried out as follows: RAT-1 fibroblasts were seeded at a density of 2×10^5 cells in Dulbecco's modified Eagle's medium (DMEM) (Gibco) containing 5% fetal bovine serum (FBS) in 100 mm dishes. […] After 16 hours, the DNA precipitate was removed, the cells washed and grown for 24 hours in complete medium. Cells were split 1:5, allowed to attach overnight and then cultured in DMEM with 5% FBS alone, supplemented with 10 μM norepinephrine (NE) or G418 (300 μg/ml). Dishes were supplemented with NE daily, and fed every 3 days with fresh medium.

[2] = system: RAT-1 fibroblast cell line derived from a single transformed focus expressing the α1B -ADR; assay: Morphology of focus-derived RAT-1 fibroblast cell line expressing the α1B-ADR; format: cell-based; settings: 10 μM NE and 1 μM prazosin, 36 hours
[3] = saturation binding 10 to 500 pM, nonspecific binding with 1 μM prazosin, read-out: [125I] HEAT Kd
[4] = serum free medium, data not shown

Kd (α1B ADR; [3]): 44.1 pM and 38.3 pM | [125I] HEAT Bmax (α1B ADR; saturation binding): 5.1 pmol/mg and 2.7 pmol/mg | Kd (α1B ADR mutant; [3]): 37.9 pM and 46.3 pM | [125I] HEAT Bmax (α1B ADR mutant; saturation binding): 2.2 pmol/mg and 2.6 pmol/mg
Structure (SMILES): O=C1c2ccccc2CCC1CNCCc1ccc(O)c([125I])c1 (stereo not shown) [[^125 I] HEAT, 2{b-(4-hydroxy-3-[^125 I]iodophenyl)ethylaminomethyl}-tetralone]

Structure (SMILES): c1ccc2c(c1)OCC(C1=NCCN1)O2 (stereo not shown) [idazoxan]
blockade of NE-induced increase in DNA synthetic activity (α1B -ADR; [4]): not

Structure (SMILES): COc1cc2nc(N3CCN(C(=O)c4ccco4)CC3)nc(N)c2cc1OC [prazosin]
inhibition of agonist-dependent focus formation by concurrent antagonist [1]: could be inhibited | effect of concurrent antagonist on agonist-induced transformation (morphology) [2]: blocked agonist-induced transformation; also recorded: reverted the cells to the untransformed phenotype | blockade of NE-induced increase in DNA synthetic activity (α1B -ADR): could be blocked

Structure (SMILES): CC(C)NCC(O)COc1cccc2ccccc12 (stereo not shown) [propranolol]
blockade of NE-induced increase in DNA synthetic activity (α1B -ADR; [4]): not

Structure (SMILES): COC(=O)[C@@H]1[C@H]2C[C@H]3c4[nH]c5ccccc5c4CCN3C[C@@H]2CC[C@@H]1O [yohimbine]
blockade of NE-induced increase in DNA synthetic activity (α1B -ADR): not
